Test results as given in US20220062240A1, “METHODS OF TREATING CANCER USING A CLK INHIBITOR” (BioSplice Therapeutics, Inc., priority 2018, published 2022).
Read-outs that look alike come from different tables or passages of the source.

Legend:
Assay type in all cases: cell-based
BT-549 = assay: CellTiter-Glo Viability Assay, breast cancer; conditions: Homo sapiens, BT-549, 96 h
Method: (§1) Fifty-one human cancer cell lines (breast cancer (8 cell lines), colorectal cancer (6 cell lines), haematopoietic & lymphoid tumors (13 cell lines), liver cancer (3 cell lines), lung cancer (4 cell lines), ovarian cancer (4 cell lines), pancreatic cancer (8 cell lines), and prostate cancer (5 cell lines)) were tested to determine the effects of representative compounds of Formulas (I)-(XII) on cellular proliferation, as evaluated using the CellTiter-Glo® Viability Assay.
(§2) For the Cell Viability Assays, cells were plated at 300-3,000 cells/well in 384-well plates in their respective media containing 1% Penicillin-Streptomycin and incubated for four days at 37° C. and 5% CO2. Twenty-eight replicates of DMSO-treated cells served as controls and cells treated with compound were performed in duplicate.
(§3) After incubation, 10 μL of CellTiter-Glo® (Promega) was added to each well allowed to incubate for approximately 12 minutes. This reagent results in cell lysis and generation of a luminescent signal proportional to the amount of ATP present. The amount of ATP is directly proportional to the number of metabolically active, viable cells present in culture. The CellTiter-Glo® Assay generates a luminescent signal, produced by the luciferase reaction (Promega.com).
(§4) After incubation, the luminescence signal was read using an EnVision™ Multilabel Plate Reader (Perkin Elmer). Dose-response curves were generated and EC50 concentration values were calculated using Dotmatics' Studies Software (Bishops Stortford, UK).

CAMA1 = assay: CellTiter-Glo Viability Assay, breast cancer; conditions: Homo sapiens, CAMA-1, 96 h
Method: as §1, §2, §3, §4

DU4475 = assay: CellTiter-Glo Viability Assay, breast cancer; conditions: Homo sapiens, DU-4475, 96 h
Method: as §1, §2, §3, §4

HCC1599 = assay: CellTiter-Glo Viability Assay, breast cancer; conditions: Homo sapiens, HCC1599, 96 h
Method: as §1, §2, §3, §4

MCF7 = assay: CellTiter-Glo Viability Assay, breast cancer; conditions: Homo sapiens, MCF7, 96 h
Method: as §1, §2, §3, §4

MDA-MB-231-Luc = assay: CellTiter-Glo Viability Assay, breast cancer; conditions: Homo sapiens, 96 h
Method: as §1, §2, §3, §4

T47D = assay: CellTiter-Glo Viability Assay, breast cancer; conditions: Homo sapiens, 96 h
Method: as §1, §2, §3, §4

ZR-75-1 = assay: CellTiter-Glo Viability Assay, breast cancer; conditions: Homo sapiens, ZR-75-1, 96 h
Method: as §1, §2, §3, §4

[1] = tested on: colorectal cancer (6 cell lines); assay: CellTiter-Glo Viability Assay, colorectal cancer; conditions: Homo sapiens
Method: as §1, §2, §3, §4

[2] = tested on: haematopoietic & lymphoid tumors (13 cell lines); assay: CellTiter-Glo Viability Assay, haematopoietic & lymphoid tumors; conditions: Homo sapiens
Method: as §1, §2, §3, §4

[3] = tested on: liver cancer (3 cell lines); assay: CellTiter-Glo Viability Assay, liver cancer; conditions: Homo sapiens
Method: as §1, §2, §3, §4

[4] = tested on: lung cancer (4 cell lines); assay: CellTiter-Glo Viability Assay, lung cancer; conditions: Homo sapiens
Method: as §1, §2, §3, §4

[5] = tested on: ovarian cancer (4 cell lines); assay: CellTiter-Glo Viability Assay, ovarian cancer; conditions: Homo sapiens
Method: as §1, §2, §3, §4

[6] = tested on: pancreatic cancer (8 cell lines); assay: CellTiter-Glo Viability Assay, pancreatic cancer; conditions: Homo sapiens
Method: as §1, §2, §3, §4

[7] = tested on: prostate cancer (5 cell lines); assay: CellTiter-Glo Viability Assay, prostate cancer; conditions: Homo sapiens
Method: as §1, §2, §3, §4

SMILES: CN1CCN(c2cc(C(=O)Nc3cc4cc(-c5cnn(C)c5)ccc4cn3)ccn2)CC1 [Compound 12]
- EC50 (BT-549): 231 nM
- EC50 (CAMA1): 347 nM
- EC50 (DU4475): 182 nM
- EC50 (HCC1599): 103 nM
- EC50 (MCF7): 600 nM
- EC50 (MDA-MB-231-Luc): 304 nM
- EC50 (T47D): 427 nM
- EC50 (ZR-75-1): 361 nM
- EC50 ([1]; DLD-1, read-out: Colorectal cancer, EC50 (μM) DLD-1): 0.183 µM
- EC50 ([1]; HCT-116, read-out: Colorectal cancer, EC50 (μM) HCT116): 0.138 µM
- EC50 ([1]; HT-29, read-out: Colorectal cancer, EC50 (μM) HT29): 0.291 µM
- EC50 ([1]; SW48, read-out: Colorectal cancer, EC50 (μM) SW48): 0.09 µM
- EC50 ([1]; SW480, read-out: Colorectal cancer, EC50 (μM) SW480): 0.159 µM
- EC50 ([1]; SW-620, read-out: Colorectal cancer, EC50 (μM) SW620): 0.114 µM
- EC50 ([2]; DND41, read-out: Haematopoietic & Lymphoid tumors, EC50 (μM) DND-41): 0.208 µM
- EC50 ([2]; HL-60, read-out: Haematopoietic & Lymphoid tumors, EC50 (μM) HL-60): 0.518 µM
- EC50 ([2]; JM1, read-out: Haematopoietic & Lymphoid tumors, EC50 (μM) JM1): 0.095 µM
- EC50 ([2]; JeKo-1, read-out: Haematopoietic & Lymphoid tumors, EC50 (μM) JeKo-1): 0.081 µM
- EC50 ([2]; Jurkat, read-out: Haematopoietic & Lymphoid tumors, EC50 (μM) JURKAT, Clone E6-1): 0.412 µM
- EC50 ([2]; Kasumi 1, read-out: Haematopoietic & Lymphoid tumors, EC50 (μM) KASUMI-1): 0.156 µM
- EC50 ([2]; MOLT-4, read-out: Haematopoietic & Lymphoid tumors, EC50 (μM) MOLT-4): 0.302 µM
- EC50 ([2]; MV4-11, read-out: Haematopoietic & Lymphoid tumors, EC50 (μM) MV-4-11): 0.082 µM
- EC50 ([2]; Rec1, read-out: Haematopoietic & Lymphoid tumors, EC50 (μM) REC-1): 0.075 µM
- EC50 ([2]; SU-DHL-4, read-out: Haematopoietic & Lymphoid tumors, EC50 (μM) SUDHL4): 0.335 µM
- EC50 ([2]; TF-1, read-out: Haematopoietic & Lymphoid tumors, EC50 (μM) TF-1): 0.386 µM
- EC50 ([2]; Toledo, read-out: Haematopoietic & Lymphoid tumors, EC50 (μM) TOLEDO): 0.101 µM
- EC50 ([2]; read-out: Haematopoietic & Lymphoid tumors, EC50 (μM) Loucy): 0.155 µM
- EC50 ([3]; HepG2, read-out: Liver cancer, EC50 HEPG2): 309 nM
- EC50 ([3]; PLC-PRF-5, read-out: Liver cancer, EC50 PLC/PRF/5): 465 nM
- EC50 ([3]; SNU-398, read-out: Liver cancer, EC50 SNU398): 62 nM
- EC50 ([4]; A-427, read-out: Lung cancer, EC50 (μM) A427): 0.277 µM
- EC50 ([4]; HCC78, read-out: Lung cancer, EC50 (μM) HCC-78): 0.326 µM
- EC50 ([4]; NCI-H460, read-out: Lung cancer, EC50 (μM) NCI-H460): 0.261 µM
- EC50 ([4]; NCI-H522, read-out: Lung cancer, EC50 (μM) NCI-H522): 0.133 µM
- EC50 ([5]; OV-90, read-out: Ovarian cancer, EC50 (μM) OV-90): 0.456 µM
- EC50 ([5]; OVCAR-3, read-out: Ovarian cancer, EC50 (μM) OVCAR-3): 0.113 µM
- EC50 ([5]; PA-1, read-out: Ovarian cancer, EC50 (μM) PA1): 0.172 µM
- EC50 ([5]; TOV112D, read-out: Ovarian cancer, EC50 (μM) TOV-112D): 0.152 µM
- EC50 ([6]; BXPC-3, read-out: Pancreatic cancer, EC50 BxPC3): 420 nM
- EC50 ([6]; CAPAN-1, read-out: Pancreatic cancer, EC50 Capan1): 343 nM
- EC50 ([6]; Capan-2, read-out: Pancreatic cancer, EC50 Capan2): 415 nM
- EC50 ([6]; MIA PaCa-2, read-out: Pancreatic cancer, EC50 MIA PaCa-2): 131 nM
- EC50 ([6]; PANC-1, read-out: Pancreatic cancer, EC50 PANC-1): 294 nM
- EC50 ([6]; Panc 05.04, read-out: Pancreatic cancer, EC50 PANC 05.04): 340 nM
- EC50 ([6]; read-out: Pancreatic cancer, EC50 UPAFII): 153 nM
- EC50 ([7]; 22Rv1, read-out: Prostate cancer EC50 22Rv1): 191 nM
- EC50 ([7]; DU-145, read-out: Prostate cancer EC50 Du-145): 377 nM
- EC50 ([7]; LNCaP-Clone-FGC, read-out: Prostate cancer EC50 LNCap clone FGC): 329 nM
- EC50 ([7]; PC-3, read-out: Prostate cancer EC50 PC3): 237 nM
- EC50 ([7]; VCaP, read-out: Prostate cancer EC50 VCaP (Sigma)): 462 nM
